Reference: ChEMBL document CHEMBL6182924, “Discovery of a Novel and Potent MET Transcription Inhibitor Targeting Promoter G-Quadruplex for the Treatment of NSCLC” (J Med Chem, 2025)
The source made the active and inactive calls. The rule behind the calls is not given here.

What was measured:
[1] = system: A549; assay: Induction of apoptosis in human A549 cells assessed as early apoptotic cells at 2 uM incubated for 24 hrs by Annexin V-FITC/PI staining based flow cytometry analysis (reference value: 1.73 %); format: functional
[2] = Toxicity in BALB/c mouse xenografted with human A549 cells assessed as heart damage at 40 mg/kg, po administered once a day and measured after 20 days by H and E staining based analysis; format: organism-based; details: in vivo, 480 h, time 20 day
[3] = system: A549; assay: Induction of cell cycle arrest in human A549 cells assessed as accumulation of cells at G1 phase at 2 uM measured for 24 hrs by PI/Rnase staining based flow cytometry (reference value: 75.2 %); format: functional
[4] = system: NCI-H1975; assay: Inhibition of colony formation in human NCI-H1975 cells incubated for 2 weeks by crystal violet staining based analysis; format: functional, cell-based; details: dose 0.5-2 µM
[5] = system: NCI-H1975; assay: Downregulation of c-Met mRNA expression in human NCI-H1975 cells at 0.5 to 1 uM incubated for 24 hrs by qRT-PCR analysis; format: functional, cell-based; details: dose 0.5-1 µM
[6] = Acute toxicity in Sprague-Dawley rat assessed as lung damage at 500 to 2000 mg/kg, po measured every 2 days by H and E staining based analysis; format: organism-based; details: in vivo, 48 h, dose 500-2000 mg/kg, time 2 day
[7] = system: NCI-H1975; assay: Induction of apoptosis in human NCI-H1975 cells assessed as early apoptotic cells at 1 uM incubated for 24 hrs by Annexin V-FITC/PI staining based flow cytometry analysis (reference value: 0.35 %); format: functional
[8] = system: A549; assay: Antitumor activity against human A549 cells xenografted in BALB/c mouse assessed as tumor growth inhibition at 40 mg/kg, po administered once a day and measured up to 24 days; format: functional; details: A549, 576 h, time <= 24 day, read-out: TGI
[9] = system: A549; assay: Antitumor activity against human A549 cells xenografted in BALB/c mouse assessed as downregulation of AKT expression in tumor at 20 mg/kg, po administered once a day and measured for 20 days by Western blot analysis; format: functional, organism-based; details: time 20.0 day
[10] = system: A549; assay: Induction of apoptosis in human A549 cells assessed as early apoptotic cells at 0.5 uM incubated for 24 hrs by Annexin V-FITC/PI staining based flow cytometry analysis (reference value: 1.73 %); format: functional
[11] = system: A549; assay: Induction of cell cycle arrest in human A549 cells assessed as accumulation of cells at G2 phase at 2 uM measured for 24 hrs by PI/Rnase staining based flow cytometry (reference value: 13.4 %); format: functional
[12] = Toxicity in BALB/c mouse xenografted with human A549 cells assessed as spleen damage at 20 mg/kg, po administered once a day and measured after 20 days by H and E staining based analysis; format: organism-based; details: in vivo, 480 h, time 20 day
[13] = system: NCI-H1975; assay: Induction of cell cycle arrest in human NCI-H1975 cells assessed as accumulation of cells at G1 phase at 1 uM measured for 24 hrs by PI/Rnase staining based flow cytometry (reference value: 79.2 %); format: functional
[14] = system: NCI-H1975; assay: Antiproliferative activity against MET knockdown human NCI-H1975 cells assessed as inhibition of cell growth by CCK-8 assay; format: functional, cell-based
[15] = system: A549; assay: Induction of apoptosis in human A549 cells assessed as necrotic cells at 0.5 uM incubated for 24 hrs by Annexin V-FITC/PI staining based flow cytometry analysis (reference value: 4.37 %); format: functional
[16] = system: NCI-H1975; assay: Induction of apoptosis in human NCI-H1975 cells assessed as viable cells at 2 uM incubated for 24 hrs by Annexin V-FITC/PI staining based flow cytometry analysis (reference value: 90.1 %); format: functional; details: read-out: Activity
[17] = Acute toxicity in Sprague-Dawley rat assessed as kidney damage at 500 to 2000 mg/kg, po measured every 2 days by H and E staining based analysis; format: organism-based; details: in vivo, 48 h, dose 500-2000 mg/kg, time 2 day
[18] = Toxicity in BALB/c mouse xenografted with human A549 cells assessed as body weight loss at 40 mg/kg, po administered once a day and measured after 20 days; format: organism-based; details: in vivo, 480 h, time 20 day
[19] = system: NCI-H1975; assay: Induction of cell cycle arrest in human NCI-H1975 cells assessed as accumulation of cells at G2 phase at 1 uM measured for 24 hrs by PI/Rnase staining based flow cytometry (reference value: 14.8 %); format: functional
[20] = system: NCI-H1975; assay: Downregulation of c-Met expression in human NCI-H1975 cells incubated for 72 hrs by Western blot analysis; format: functional, cell-based; details: dose <= 1000.0 nM
[21] = system: NCI-H1975; assay: Inhibition of cell invasion in human NCI-H1975 cells incubated for 12 hrs; format: functional, cell-based; details: dose 0.5-2 µM
[22] = system: NCI-H1975; assay: Induction of apoptosis in human NCI-H1975 cells assessed as late apoptotic cells at 1 uM incubated for 24 hrs by Annexin V-FITC/PI staining based flow cytometry analysis (reference value: 2.27 %); format: functional
[23] = system: A549; assay: Induction of apoptosis in human A549 cells assessed as viable cells at 2 uM incubated for 24 hrs by Annexin V-FITC/PI staining based flow cytometry analysis (reference value: 91.3%); format: functional; details: read-out: Activity
[24] = system: A549; assay: Induction of apoptosis in human A549 cells assessed as late apoptotic cells at 1 uM incubated for 24 hrs by Annexin V-FITC/PI staining based flow cytometry analysis (reference value: 2.56 %); format: functional
[25] = system: A549; assay: Antitumor activity against human A549 cells xenografted in BALB/c mouse assessed as reduction in ki67 expression in tumor at 40 mg/kg, po administered once a day and measured up to 24 days by […] based analysis; format: functional, organism-based; details: time <= 24.0 day
[26] = Toxicity in BALB/c mouse xenografted with human A549 cells assessed as spleen damage at 20 mg/kg, po administered once a day and measured after 40 days by H and E staining based analysis; format: organism-based; details: in vivo, 960 h, time 40 day
[27] = system: A549; assay: Antiproliferative activity against human A549 cells incubated for 3 days by CCK-8 assay; format: functional, cell-based; details: A549, 72 h
[28] = system: A549; assay: Induction of apoptosis in human A549 cells assessed as necrotic cells at 2 uM incubated for 24 hrs by Annexin V-FITC/PI staining based flow cytometry analysis (reference value: 4.37 %); format: functional
[29] = system: A549; assay: Induction of cell cycle arrest in human A549 cells assessed as accumulation of cells at G2 phase at 0.5 uM measured for 24 hrs by PI/Rnase staining based flow cytometry (reference value: 13.4 %); format: functional
[30] = Toxicity in BALB/c mouse xenografted with human A549 cells assessed as kidney damage at 40 mg/kg, po administered once a day and measured after 20 days by H and E staining based analysis; format: organism-based; details: in vivo, 480 h, time 20 day
[31] = system: A549; assay: Inhibition of cell invasion in human A549 cells incubated for 12 hrs; format: functional, cell-based; details: dose 0.5-2 µM
[32] = system: A549; assay: Downregulation of c-Met expression in human A549 cells incubated for 72 hrs by Western blot analysis; format: functional, cell-based; details: dose <= 1000.0 nM
[33] = molecular target: Quadruplex DNA; assay: Binding affinity to c-MET G4-quadruplex DNA (unknown origin) assessed as dissociation constant by MST assay; format: nucleic-acid assay
[34] = system: A549; assay: Induction of apoptosis in human A549 cells assessed as viable cells at 1 uM incubated for 24 hrs by Annexin V-FITC/PI staining based flow cytometry analysis (reference value: 91.3%); format: functional; details: read-out: Activity
[35] = system: NCI-H1975; assay: Inhibition of cell migration in human NCI-H1975 cells incubated for 12 hrs by crystal violet staining based analysis; format: functional; details: dose 0.5-2 µM

With COc1cccc(-c2ccc(-c3nc4c5cccnc5c5ncccc5c4[nH]3)o2)c1 the Activity [1] was 12.2%, the Activity [2] was “Non-toxic” and the Activity [3] was 83.9%. The inhibition [4] was “Dose-dependent-effect”, the Activity [5] was “Active” and the Activity [6] was “Non-toxic”. The Activity [7] was 2.2%, the inhibition in vivo at 40 mg/kg [8] was 62.4% and the Activity [9] was “Active”. For the same molecule, the Activity [10] was 5.09%, the Activity [11] was 9.06% and the Activity [12] was “Non-toxic”. The Activity [13] was 82.1%, the Activity [14] was “Active” and the Activity [15] was 3.79%. For the same molecule, the viability at 2 µM [16] was 79.7%, the Activity [17] was “Non-toxic” and the Activity [18] was “Non-toxic”. The Activity [19] was 11.5%, the Activity [20] was “Dose-dependent-effect” and the inhibition [21] was “Dose-dependent-effect”. The Activity [22] was 10.1%, the viability at 2 µM [23] was 57.4% and the Activity [24] was 10.8%. For the same molecule, the Activity [25] was “Active”, the Activity [26] was “Non-toxic” and the IC50 [27] was 430 nM. For the same molecule, the Activity [28] was 6.99%, the Activity [29] was 14.6% and the Activity [30] was “Non-toxic”. For the same molecule, the inhibition [31] was “Dose-dependent-effect”, the Activity [32] was “Dose-dependent-effect” and the Kd [33] was 73.5 nM. The viability at 1 µM [34] was 74% and the inhibition [35] was “Dose-dependent-effect”.
